In ChEMBL document CHEMBL1130889, “The synthesis and biological evaluation of a novel series of indole PDE4 inhibitors I” (Bioorg Med Chem Lett, 1998):

What was measured:
[1] = target: Phosphodiesterase 4 (Cavia porcellus); test: Inhibitory activity against Phosphodiesterase type IV (PDE4) obtained from guinea-pig macrophage was evaluated
[2] = target: Phosphodiesterase 4 (Cavia porcellus); test: Binding affinity against PDE4 was determined using [3H]- rolipram in guinea pig brain membrane binding assay
PBMC [3] = test: Inhibition of tumor necrosis factor-alpha release from activated human monocyte cells.; format: functional, cell-based
PBMC [4] = test: Inhibition of tumor necrosis factor-alpha release from activated human monocyte cells in the presence of RP73401.; format: functional, cell-based
Mus musculus = test: Inhibition of LPS-induced tumor necrosis factor-alpha (TNF-alpha) production in mice at 50 mg/kg; format: functional
[5] = Bioavailability was evaluated in mice after oral administration; format: ADME, organism-based; conditions: mouse, in vivo, read-out: Bioavailabiility
[6] = Area under the curve was evaluated in mice after intravenous administration; format: ADME, organism-based; conditions: mouse, in vivo
[7] = Terminal half life was evaluated in mice after intravenous administration; format: ADME, organism-based; conditions: mouse, in vivo
[8] = Maximum time required to reach Cp max was evaluated in mice after oral administration; format: ADME, organism-based; conditions: mouse, plasma
[9] = Maximum plasma concentration was evaluated in mice after oral administration; format: ADME, organism-based; conditions: mouse, read-out: Cp max
[10] = Terminal half life was evaluated in mice after oral administration; format: ADME, organism-based; conditions: mouse, in vivo
[11] = Area under the curve was evaluated in mice after oral administration; format: ADME, organism-based; conditions: mouse, in vivo
[12] = Volume of distribution was evaluated in mice after intravenous administration; format: ADME, organism-based; conditions: mouse, in vivo, read-out: Vdss
[13] = Clearance was evaluated in mice after intravenous administration; format: ADME, organism-based; conditions: mouse, in vivo
PBMC [14] = test: Inhibition of tumor necrosis factor-alpha release from activated human monocyte cells at 0.3 uM; format: functional, cell-based
PBMC [15] = test: Inhibition of tumor necrosis factor-alpha release from activated human monocyte cells at […]; format: functional, cell-based

Row | IC50 [1] | Ki [2] | SMILES | IC50 (PBMC [3]) | IC50 (PBMC [4]) | inhibition in vivo at 50 mg/kg (Mus musculus) | further results
1 | > 10000 nM | > 3745 nM | Cc1ccc(S(=O)(=O)n2cc(Cc3ccccc3)c3ccc(C(=O)Nc4c(Cl)cncc4Cl)cc32)cc1 |  |  |  | 
2 | 18 nM | 135 nM | Cc1cn(Cc2ccccc2)c2cc(C(=O)Nc3c(Cl)cncc3Cl)ccc12 | 23 nM | 4 nM | 0% | 
3 | 300 nM | 220 nM | Cc1cn(Cc2ccc(C(N)=O)cc2)c2cc(C(=O)Nc3c(Cl)cncc3Cl)ccc12 | 53 nM | < 1 nM | 0% | 
4 | 5.2 nM | 7 nM | Cc1cn(Cc2ccc3ccccc3c2)c2cc(C(=O)Nc3c(Cl)cncc3Cl)ccc12 | 90 nM | 10.5 nM | 0% | 
5 |  |  | COc1ccc(Cn2cc(C)c3ccc(C(=O)Nc4c(Cl)cncc4Cl)cc32)cc1 | 60 nM | 3 nM | 20% | bioavailability [5]: 3.7%; AUC [6]: 678 ng·h/mL; half-life [7]: 156 min; Tmax [8]: 30 min; Cmax [9]: 9.9 ng/mL; half-life [10]: 102 min; AUC [11]: 25.3 ng·h/mL; Vd [12]: 2.4 L/kg; clearance [13]: 24.7 mL/min/kg
6 | 187 nM | 75 nM | Cc1noc(C)c1Cn1cc(C)c2ccc(C(=O)Nc3c(Cl)cncc3Cl)cc21 | 580 nM | 18 nM | 0% | 
7 | 60 nM | 75 nM | COc1cccc(Cn2cc(C)c3ccc(C(=O)Nc4c(Cl)cncc4Cl)cc32)c1 |  |  |  | 
8 | 25 nM | 66 nM | CCCCCCCn1cc(C)c2ccc(C(=O)Nc3c(Cl)cncc3Cl)cc21 | 11 nM | 3 nM | 22% | 
9 | 200 nM | 300 nM | Cc1cn(Cc2ccc(S(C)(=O)=O)cc2)c2cc(C(=O)Nc3c(Cl)cncc3Cl)ccc12 | 134 nM | > 1 nM | 0% | 
10 | 80 nM | 54 nM | COc1ccccc1Cn1cc(C)c2ccc(C(=O)Nc3c(Cl)cncc3Cl)cc21 |  |  |  | 
11 | 100 nM | 120 nM | Cc1cn(CC2CCCCC2)c2cc(C(=O)Nc3c(Cl)cncc3Cl)ccc12 | 200 nM | 8 nM | 0% | 
12 | 25 nM | 41 nM | Cc1cn(CCCc2ccccc2)c2cc(C(=O)Nc3c(Cl)cncc3Cl)ccc12 | 168 nM | 3 nM | 17% | 
13 | 380 nM | 172 nM | Cc1cn(CCN2CCOCC2)c2cc(C(=O)Nc3c(Cl)cncc3Cl)ccc12 |  | 3 nM |  | IC50 (PBMC [14]): 28 nM
14 | 46 nM | 60 nM | Cc1cn(Cc2cccc3ccccc23)c2cc(C(=O)Nc3c(Cl)cncc3Cl)ccc12 | 1300 nM | 10 nM |  | 
15 | 220 nM | 187 nM | Cc1cn(CCCC2CCCCC2)c2cc(C(=O)Nc3c(Cl)cncc3Cl)ccc12 | 12 nM | 0.7 nM | 27% | 
16 | 45 nM | 712 nM | Cc1ccc(S(=O)(=O)n2cc(C)c3ccc(C(=O)Nc4c(Cl)cncc4Cl)cc32)cc1 | 300 nM | 3 nM | 0% | 
17 | 70 nM | 280 nM | Cc1cn(CCc2ccccc2)c2cc(C(=O)Nc3c(Cl)cncc3Cl)ccc12 | 8 nM | 0.9 nM |  | 
18 | 5 nM |  | Cc1c[nH]c2cc(C(=O)Nc3c(Cl)cncc3Cl)ccc12 |  |  |  | 
19 | 15 nM | 374 nM | Cc1cn(C2CCCC2)c2cc(C(=O)Nc3c(Cl)cncc3Cl)ccc12 |  | 3 nM |  | IC50 (PBMC [15]): 30 nM
20 | 52 nM | 75 nM | Cc1cn(Cc2cccc([N+](=O)[O-])c2)c2cc(C(=O)Nc3c(Cl)cncc3Cl)ccc12 | 34 nM | 2 nM | 16% | 
21 | 3.2 nM | 21 nM | Cc1cn(CCC2CCCCC2)c2cc(C(=O)Nc3c(Cl)cncc3Cl)ccc12 | 2 nM | 0.7 nM | 0% | 
22 | 42 nM | 24 nM | Cc1nc(Cn2cc(C)c3ccc(C(=O)Nc4c(Cl)cncc4Cl)cc32)cs1 | 24.1 nM | 1.5 nM | 0% | 
23 |  |  | COc1ccc(C(=O)Nc2c(Cl)cncc2Cl)cc1OC1CCCC1 |  |  |  | ED50 (Mus musculus): 10 mg/kg
24 | 2900 nM | > 3745 nM | CCc1cn(S(=O)(=O)c2ccc(C)cc2)c2cc(C(=O)Nc3c(Cl)cncc3Cl)ccc12 |  |  |  | 
